The text below walks through data of US20090011013A1, “Tacrolimus Combination Products” (LIFECYCLE PHARMA A/S, priority 2005, published 2009).

Like-named read-outs stand apart in the source and are kept apart here.

Data set [1] is described as follows: three-way crossover pilot bioavailability study of Prograf and Neoral combinations vs. Prograf. Type of data set: in vivo, human.
For data set [2] the following is noted: cited from earlier work.
The conditions of data set [3]: cited from earlier work. This is another data set of the same source.
The conditions of data set [4]: rats, cited from earlier work.
Data set [5] has as its system Canine Lung Allotransplantation. The note with it: dogs, cited from earlier work.
For data set [6] the following is noted: oral, cited from earlier work.

`C=CC[C@@H]1/C=C(\C)C[C@H](C)C[C@H](OC)[C@H]2O[C@@](O)(C(=O)C(=O)N3CCCC[C@H]3C(=O)O[C@H](/C(C)=C/[C@@H]3CC[C@@H](O)[C@H](OC)C3)[C@H](C)[C@@H](O)CC1=O)[C@H](C)C[C@@H]2OC` [Tacrolimus]: in data set [1] (tacrolimus and cyclosporine in a ratio of 1:20), the “increase in tacrolimus bioavailability” value is reported as “above 100%”. Also, in data set [1] (tacrolimus and cyclosporine in the ratio of 1:2), the “increase of bioavailability of tacrolimus” value is on record as 30%. The solubility in chloroform entry in data set [2] (chloroform) was “very soluble”. The solubility in ethanol result in data set [2] (ethanol) is listed as “freely soluble”. Further, the solubility in methanol result in data set [2] (methanol) is “very soluble”. For the same compound, the solubility in water result in data set [2] (water) was “practically insoluble”. Besides, the bioavailability (in general, the share of a dose that reaches the circulation, judged against a reference dose that is usually intravenous) is ≤ 20% in data set [3] (after oral administration), ~25% in data set [4] (intestinal administration) and “about 40%” in data set [4] (intraportal administration (infusion over 1 hour)). The “mean time-to-peak concentration (tmax)” value in data set [3] (oral, healthy subjects or kidney or liver transplanted patients) is 1 to 2 h. Further, the hepatic extraction ratio in data set [4] (calculated) is given as 60%. For the same compound, the intestinal extraction in data set [4] (calculated) is recorded as 34%. The “blood concentration of tacrolimus, combination vs alone at same dose” value in data set [5] (group E vs group C) is reported as “not significant higher”. Moreover, the immunosuppressive effect result in data set [5] (i.m. 0.03 mg/kg/day (suboptimal dose)) is “rejection”; in data set [5] (i.m. 0.1 mg/kg/day (optimal dose)), “adequate immunosuppression”. The “time to reach peak” value was ≤ 1 h in data set [6] (most patients) and ≥ 4 h in data set [6] (some patients).
